Laboratory results: US11419843B2, “Small molecule BCL-2 functional converters as cancer therapeutics” (Oregon State University, priority 2016, dated 2022)
Entries after “also recorded” stand apart in the source; their conditions may differ.

Key:
Assay type in all cases: cell-based, human
[1] = test system: MDA-MB-231/Vector and MDA-MB-231/Bcl-2 cells; experiment: Viability screening assay in MDA-MB-231 cells with high and low Bcl-2 (CellTiter Glo); conditions: for Bcl-2 selective reduction in viability, MDA-MB-231/Bcl-2 vs MDA-MB-231/Vector: 10 μM, 24 h, 10% serum
Protocol: In one example, a triple negative breast cancer cell line, MDA-MB-231, was used for screening these libraries. […] At the end of the assay, cell viability was determined using the cell titer Glo assay. […] A hit was defined as a compound inducing more than 20% reduction in viability of MDA-MB-231/Bcl-2 cells, compared to vector controls (MDA-MB-231/Vector). In the next step these shortlisted small molecules were tested for their ability to convert the conformation of Bcl-2 into a pro-apoptotic one.
To screen for Bcl-2 selective compounds, MDA-MB-231 cells (MDA-MB-231/Vector and MDA-MB-231/Bcl-2) were plated at 4000 cells per well in a 96 well black opaque plate. The day after plating the cells, treatment from the library plates was done so as to add 1 μL of the compound into the cells, resulting in 10 μM concentration. For non-specific […], 25 nM of staurosporin was used. […] Post treatment viability was assessed by CellTiter Glo Cell Viability assay (Promega Inc., Madison, Wis.) as per manufacturer instructions.
Viability for test compounds in each cell line (MDA-MB-231/Vector and MDA-MB-231/Bcl-2) was normalized to their respective vehicle treatments. Compounds that had at least 20% less viability in the MDA-MB-231/Bcl-2 cell line than the MDA-MB-231/Vector cell line were selected as initial hits and shortlisted for revalidation. Revalidated compounds were reordered for further testing and characterization. All data analyses were performed using Microsoft Excel.

[2] = test system: Bcl-2 low and high expressing Jurkat lymphoma cells (Jurkat/Vector, Jurkat/Bcl-2); experiment: Cell viability in Bcl-2 low and high expressing Jurkat cells; conditions: for Effect of Bcl-2 expression on Jurkat cells exposed to cancer therapeutics: Jurkat cells with high and low expression of Bcl-2 (FIG. 9G); for Bcl-2 dependent effects in Jurkat Lymphoma cells: Bcl-2 low and high expressing Jurkat lymphoma cells treated for 72 hours with various concentrations; for minimal effective concentration: Homo sapiens, Jurkat lymphoma cells, 72 hours, n/d means no reduction was detected at concentrations tested, read-out: Lowest effective dose (minimal effective concentration that induced Bcl-2-dependent reduction in cell viability)
[3] = test system: MDA-MB-468 parental and derived paclitaxel or doxorubicin resistant cells; experiment: Viability of MDA-MB-468 parental and derived resistant cells; conditions: 72 hours
Protocol: Percentage viability relative to vehicle treatment. Representative of three independent assays in triplicate.
Percentage viability relative to vehicle treatment.
Percentage viability relative to vehicle treatment. Representative of three independent assays conducted in triplicate.
(§1) Cells of interest were plated at 2000 cells per well in 96-well black tissue culture plate and allowed to adhere to the plate overnight. Viability assays were performed using 10% serum medium unless otherwise stated. Drugs were diluted in supplemented tissue culture medium and added at increasing concentrations, with DMSO as a vehicle control. Cells were then incubated for either 48 hour or 72 hours in presence of the compound, Promega Titer Glo was added to the wells at the assay end point according to manufacturer's protocol. Luminescence was measured using Tropix TR717 Microplate luminometer. Percentage of viable cells is relative to vehicle (100%). As a complementary viability assay, eBioscience Fixable Viability Dye eFluor 660(65-0864) was used to stain dead cells and analyzed using flow cytometry.

[4] = test system: H460 parental and derived paclitaxel resistant cells; experiment: Viability of H460 parental and paclitaxel resistant cells
Protocol: Percentage viability relative to vehicle treatment was calculated. Representative of three independent assays conducted in triplicate.
FIG. […] Percentage viability relative to vehicle treatment. Representative of three independent assays conducted in triplicate.
Representative of three independent assays conducted in triplicate.
Cell lines were obtained from ATCC and maintained according to manufacturer's instructions. The human lung cancer cell line NCI-H460, H69AR (ATCC) were cultured in RPMI medium (Corning) containing 10% FBS. The human breast cancer cell line MDA-MB-231 was cultured in DMEM medium (Corning) containing 10% FBS. All cell lines were maintained at 5% CO2 and 37° C. Paclitaxel resistant H460 cells were derived by treating cells once a week over 6 weeks, initially with 1 nM paclitaxel and then increasing dose incrementally up to 100 nM. Once resistance was confirmed, paclitaxel was withdrawn from the cells. Resistance to paclitaxel was maintained without presence of paclitaxel measured up to 2 months. A parental line was maintained for a similar number of passages as the resistant line. All experiments were performed using cells that had not been treated with paclitaxel in at least three passages.
as §1, with “Cells were then incubated for either 48 hour or 72 hours in presence of the compound, Promega Titer Glo was added to the wells at the assay end point according to manufacturer's protocol.” left out

[5] = test system: H460 parental and resistant cells; experiment: Annexin-V apoptosis assay in H460 parental and resistant cells; conditions: 10 nM paclitaxel, 48 hours
Protocol: FIG. 25E is the results of Annexin-V apoptosis assay in H460 cells treated for 48 hours with vehicle or paclitaxel 10 nM, quantification right panel.
Cells were seeded into 6 well tissue culture plates to give approximately 50% confluence and allowed to attach overnight. The cells were then treated for a period of time indicated in figure legend with the appropriate compound at various concentrations (see figure legends). An Annexin V-conjugate PerCP-eFluor 710 apoptosis detection kit was used as described by the manufacturer's protocol (eBioscience 88-8008). Harvesting of cells included collection of floating and attached cells following trypsinization. Data were acquired using an CytoFLEX S flow cytometer (Beckman Coulter, Brea, Calif.) and 10,000 events on the PC5.5 channel were analyzed using CytExpert software (Beckman Coulter). For Nur77 GFP tagged annexin V analysis, GFP positive population were selected and then Annexin V+population was determined. For each sample, 10,000 GFP+ events were collected. Annexin V positive cell population was considered to be the apoptotic population, and the percent of annexin V positive cell population was used to determine the extent of apoptosis.

[6] = test system: H460 parental and resistant cells; experiment: Colony formation (2D clonogenic, 3D soft agar) of H460 parental and resistant cells; conditions: 10 nM paclitaxel, continuously for 14 days
Source text: Colony forming ability (%) relative to vehicle treatment. Representative of three independent conducted assays in triplicate.

Compound	Bcl-2 dependent effects in Jurkat Lymphoma cells [2]	minimal effective concentration [2] [µM]	other results
2-Iodo acetamide [Iodoacetamide, reference compound]			Bcl-2 selective reduction in viability, MDA-MB-231/Bcl-2 vs MDA-MB-231/Vector [1]: selectively induce more cell death in high-Bcl-2 expressing MDA-MB-231 cells
O=c1[nH]cc(F)c(=O)[nH]1 [5-fluoro uracil, reference compound]			Effect of Bcl-2 expression on Jurkat cells exposed to cancer therapeutics [2]: Bcl-2 expression protected Jurkat cells; Cross-resistance of MDA-MB-468 paclitaxel-resistant line [3]: cross-resistant
COc1ccc([N+](=O)[O-])cc1CSc1nc2sc3c(c2c(=O)n1-c1ccccc1)CCCC3 [BFC1111, 2-[(2-methoxy-5-nitrobenzyl)thio]-3-phenyl-5,6,7,8-tetrahydro[1] benzothieno[2,3-d]pyrimidin-4(3H)-one]			Bcl-2 selective reduction in viability, MDA-MB-231/Bcl-2 vs MDA-MB-231/Vector ([1]; listed as BFC1110-A): good Bcl-2 dependent effects in MDA-MB-231 cells; also recorded: comparable Bcl-2 selective induction of cell death as the parent BFC1110; Viability of H460 resistant vs parental line ([4]; 72 hours): reduced viability of resistant line preferentially
Nc1nc(N)c2nc(CNc3ccc(C(=O)N[C@@H](CCC(=O)O)C(=O)O)cc3)cnc2n1 [Compound 1]	Yes	0.01	
CN(Cc1cnc2nc(N)nc(N)c2n1)c1c(Cl)cc(C(=O)N[C@@H](CCC(=O)O)C(=O)O)cc1Cl [Compound 2]	Yes	0.001	
Nc1nc(N)c2nc(CNc3ccc(C(=O)N[C@@H](CC(=O)O)C(=O)O)cc3)cnc2n1 [Compound 3]	Yes	10	
CC(Nc1ccc(C(=O)N[C@@H](CCC(=O)O)C(=O)O)cc1)c1cnc2nc(N)nc(O)c2n1 (some centres unmarked) [Compound 4]	No		
CN(Cc1cnc2nc(N)nc(N)c2n1)c1ccc(C(=O)N[C@@H](CCC(=O)O)C(=O)O)cc1F [Compound 5]	Yes	0.01	
CN(Cc1cnc2nc(N)nc(N)c2n1)c1c(F)cc(C(=O)N[C@@H](CCC(=O)O)C(=O)O)cc1F [Compound 6]	Yes	0.01	
Cc1cc(C(=O)O)cc(C)c1N(C)Cc1cnc2nc(N)nc(N)c2n1 [Compound 7]	No		
C=CCN(Cc1cnc2nc(N)nc(N)c2n1)c1ccc(C(=O)N[C@@H](CCC(=O)O)C(=O)O)cc1 [Compound 8]	Yes	0.01	
CN(Cc1cnc2nc(N)nc(N)c2n1)c1cc(Cl)c(C(=O)N[C@@H](CCC(=O)O)C(=O)O)c(Cl)c1 [Compound 9]	Yes	1	
Nc1nc(N)c2nc(CC3CCCc4cc(C(=O)N[C@@H](CCC(=O)O)C(=O)O)ccc43)cnc2n1 (some centres unmarked) [Compound 10]	Yes	0.1	
CN(Cc1cnc2nc(N)nc(N)c2n1)c1ccc(C(=O)N[C@@H](CCC(=O)O)C(=O)O)c2ccccc12 [Compound 11]	Yes	0.001	
Nc1nc(N)c2nc3c(nc2n1)C(=O)N(c1ccc(C(=O)O)cc1)C3 [Compound 12]	No		
O=P1(N(CCCl)CCCl)NCCCO1 (centres unmarked) [cyclophosphamide, reference compound]			Effect of Bcl-2 expression on Jurkat cells exposed to cancer therapeutics [2]: Bcl-2 expression protected Jurkat cells
COc1cccc2c1C(=O)c1c(O)c3c(c(O)c1C2=O)C[C@@](O)(C(=O)CO)C[C@@H]3O[C@H]1C[C@H](N)[C@H](O)[C@H](C)O1 [doxorubicin, reference compound]			Effect of Bcl-2 expression on Jurkat cells exposed to cancer therapeutics [2]: Bcl-2 expression protected Jurkat cells; Cross-resistance of MDA-MB-468 paclitaxel-resistant line [3]: cross-resistant; Susceptibility of H460 paclitaxel resistant line (cross resistance) ([4]; viability assays and colony formation assays): paclitaxel resistant line was also less susceptible to doxorubicin treatment
Nc1ccn([C@@H]2O[C@H](CO)[C@@H](O)C2(F)F)c(=O)n1 [gemcitabine, reference compound]			Effect of Bcl-2 expression on Jurkat cells exposed to cancer therapeutics [2]: Bcl-2 expression protected Jurkat cells
CS(=O)(=O)CCNCc1ccc(-c2ccc3ncnc(Nc4ccc(OCc5cccc(F)c5)c(Cl)c4)c3c2)o1 [lapatinib, reference compound]			Effect of Bcl-2 expression on Jurkat cells exposed to cancer therapeutics [2]: Bcl-2 expression protected Jurkat cells
CC(=O)O[C@H]1C(=O)[C@@]2(C)[C@H]([C@H](OC(=O)c3ccccc3)[C@]3(O)C[C@H](OC(=O)[C@H](O)[C@@H](NC(=O)c4ccccc4)c4ccccc4)C(C)=C1C3(C)C)[C@]1(OC(C)=O)CO[C@@H]1C[C@@H]2O [paclitaxel, reference compound]			Viability of MDA-MB-468 parental and paclitaxel resistant lines ([3]; paclitaxel): derived resistant line viability was unaffected by 50 nM, however parental line was sensitive; Viability of MDA-MB-231 cells expressing pcDNA vector or Bcl-2 ([1]; paclitaxel 10 nM): reduced viability of MDA-MB-231 cells transfected with pcDNA vector, while Bcl-2 transfected MDA-MB-231 cells were partially resistant; Induction of apoptosis (Annexin V), H460 resistant vs parental [5]: minimal induction of apoptosis in the derived H460 resistant line compared to parental sensitive line; Reduction of viability of H460 parental cells ([4]; paclitaxel, 72 hours): 90%; Viability of H460 paclitaxel resistant line ([4]; paclitaxel, 72 hours): unaffected; Colony formation in 2D and 3D soft agar assays, H460 parental and resistant [6]: inhibited the parental cells ability to form colonies in 2D and 3D soft agar assays, while resistant lines tumorigenicity was unchanged
